The text below walks through data of paper PMC9344462 (Journal of Medicinal Chemistry, 2022).

For one test, the target named is PknGΔTPRΔ73 mutant V235P (Mycobacterium tuberculosis, UniProt P9WI73, V235P). Type of test: binding. To be noted: 100 µM.
In the next test the target is PknGΔTPRΔ73 mutant Y234L (Mycobacterium tuberculosis, UniProt P9WI73, Y234L). Type of test: binding. To be noted: 100 µM.
Another test addresses PknGΔTPRΔ73 mutant I292G (Mycobacterium tuberculosis, UniProt P9WI73, I292G). The class given is binding. To be noted: 100 µM.
In test [1] the target is full-length PknG with natural substrate GarA (Mycobacterium tuberculosis, UniProt P9WI73). As to the kind of experiment: Kinase Glo Plus luminescent end point inhibition assay. Particulars: tethered docking compounds assayed at 40 μM. The class given is biochemical. On the technique in general: Kinase-Glo measures the ATP left after a reaction by luminescence.

`NC(=O)c1c(N)c(C(=O)c2ccc(F)cc2)n2ccccc12` [B1]: the “shift in the melting temperature” value at PknGΔTPRΔ73 mutant V235P, on PknGΔTPRΔ73 mutant Y234L and on PknGΔTPRΔ73 mutant I292G was “no shift” each time.
Regarding `CC(C)c1ccc(C(=O)c2c(N)c(C(N)=O)c3ccccn23)cc1` [T1], the kinase activity result in test [1] is on record as “considerably diminished kinase activity”.
On the same count and under the same terms, then `NC(=O)c1c(NC(=O)NCC2CCCO2)sc2c1CCCC2` (stereo not drawn) [T2], with “considerably diminished kinase activity”; and `CCN1CCCC1CNC(=O)Nc1sc2c(c1C(N)=O)CCCC2` (stereo not drawn) [T3], with “considerably diminished kinase activity”.
